Holding throughout (experiment): Plate-bound mCD1d fusion protein hybridoma stimulation assay (IL-2 ELISA)
What all share (assay type): cell-based, mouse

Experiment [1] has as its system KT/12 hybridoma. The settings on record: KT/12 NKT hybridoma; plate-bound mCD1d-IgGFc2a fusion protein preincubated with lipid antigen. In outline: (§1)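 Protein A plates loaded with 400-600 ng/well mCD1d fusion protein plus lipid antigen (default 40:1 molar ratio), 24-48 hr at 37 °C, washed; hybridomas added at 1×10^5 cells/well for 16-20 hr. Supernatant IL-2 quantified by sandwich ELISA against murine IL-2 standard curve.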

Experiment [2] relates to 14S.10.C hybridoma. The settings on record: 14S.10 C diverse TCR hybridoma; plate-bound mCD1d-IgGFc2a fusion protein preincubated with lipid antigen. A digest of the protocol: as §1
Experiment [3] relates to KT/22 hybridoma. The note with it: KT/22 NKT hybridoma; plate-bound mCD1d-IgGFc2a fusion protein preincubated with lipid antigen. In outline: as §1
Experiment [4] concerns VII68 hybridoma. The settings on record: VII68 diverse TCR hybridoma; plate-bound mCD1d-IgGFc2a fusion protein preincubated with lipid antigen. A digest of the protocol:
as §1

Experiment [5] concerns 24.7.C hybridoma. The settings on record: 24 7.C NKT hybridoma; plate-bound mCD1d-IgGFc2a fusion protein preincubated with lipid antigen. In outline:
as §1

For experiment [6], the system named is 14S.6.A hybridoma. The settings on record: 14S.6.A diverse TCR hybridoma; plate-bound mCD1d-IgGFc2a fusion protein preincubated with lipid antigen. A digest of the protocol:
as §1

In experiment [7] the test system is DN32D3 hybridoma. The settings on record: DN32D3 NKT hybridoma; plate-bound mCD1d-IgGFc2a fusion protein preincubated with lipid antigen. In outline: as §1
Experiment [8] has as its system KT/7 hybridoma. The note with it: KT/7 NKT hybridoma; plate-bound mCD1d-IgGFc2a fusion protein preincubated with lipid antigen. A digest of the protocol: as §1
For experiment [9], the system named is KT/23 hybridoma. The note with it: KT/23 NKT hybridoma; plate-bound mCD1d-IgGFc2a fusion protein preincubated with lipid antigen. A digest of the protocol: as §1
For experiment [10], the system named is 14S.15.A hybridoma. The settings on record: 14S.15.A diverse TCR hybridoma; plate-bound mCD1d-IgGFc2a fusion protein preincubated with lipid antigen. In outline:
as §1

For experiment [11], the system named is Vβ/9 hybridoma. The note with it: Vβ/9 NKT hybridoma; plate-bound mCD1d-IgGFc2a fusion protein preincubated with lipid antigen. In outline: as §1
Experiment [12] deals with 14S.7.N hybridoma. The settings on record: 14S.7.N diverse TCR hybridoma; plate-bound mCD1d-IgGFc2a fusion protein preincubated with lipid antigen. A digest of the protocol: as §1
The test system of experiment [13] is XV19 hybridoma. The settings on record: XV19 diverse TCR hybridoma; plate-bound mCD1d-IgGFc2a fusion protein preincubated with lipid antigen. A digest of the protocol:
as §1

unglycosylated ceramide: the IL-2 secretion in experiment [1], in [2], in experiment [3], in [4], in experiment [5] and in [6] was 0 (A “0” indicates a mean of less than 50 pg/ml IL-2 was secreted) throughout. Also, the IL-2 secretion in [7], in experiment [8], in [9], in experiment [10], in experiment [11] and in [12] was 0 (A “0” indicates a mean of less than 50 pg/ml IL-2 was secreted) throughout. Also, the IL-2 secretion in experiment [13] is 0 (A “0” indicates a mean of less than 50 pg/ml IL-2 was secreted).
Regarding `CCCCCCCCCCCCCCCCCCCCCCCCCC(=O)N[C@@H](CO[C@H]1O[C@H](CO)[C@H](O)[C@H](O)[C@H]1O)[C@H](O)[C@H](O)CCCCCCCCCCCCCC` [α-GalCer, α-galactosylceramide], the IL-2 secretion result in [1] was “+++ (“+++” indicates greater than 1000 pg/ml IL-2)”; in experiment [2] it was 0 (A “0” indicates a mean of less than 50 pg/ml IL-2 was secreted); in experiment [3], “+++ (“+++” indicates greater than 1000 pg/ml IL-2)”; in [4] it was 0 (A “0” indicates a mean of less than 50 pg/ml IL-2 was secreted); in experiment [5], “+++ (“+++” indicates greater than 1000 pg/ml IL-2)”; in experiment [6], 0 (A “0” indicates a mean of less than 50 pg/ml IL-2 was secreted). Moreover, the IL-2 secretion entry is “+++ (“+++” indicates greater than 1000 pg/ml IL-2)” in experiment [7]; “+++ (“+++” indicates greater than 1000 pg/ml IL-2)” in experiment [8]; “+++ (“+++” indicates greater than 1000 pg/ml IL-2)” in experiment [9]; “+ (“+” indicates 50-250 pg/ml)” in experiment [10]; “++ (“++” indicates 250-1000 pg/ml)” in experiment [11]; 0 (A “0” indicates a mean of less than 50 pg/ml IL-2 was secreted) in experiment [12]. Also, the IL-2 secretion in experiment [13] was 0 (A “0” indicates a mean of less than 50 pg/ml IL-2 was secreted).
Turning to β-galactosylceramide [β-GalCer], the IL-2 secretion in experiment [1], in [3], in experiment [4], in experiment [5], in [6] and in experiment [7] was 0 (A “0” indicates a mean of less than 50 pg/ml IL-2 was secreted) in each case. Besides, the IL-2 secretion in [8], in experiment [9], in experiment [10], in experiment [11], in experiment [12] and in experiment [13] was 0 (A “0” indicates a mean of less than 50 pg/ml IL-2 was secreted) throughout.
For the compound phosphatidylinositol [PI], the IL-2 secretion result in experiment [1] is given as “+ (“+” indicates 50-250 pg/ml)”; in experiment [2], 0 (A “0” indicates a mean of less than 50 pg/ml IL-2 was secreted); in experiment [3] it was “+ (“+” indicates 50-250 pg/ml)”; in [4], 0 (A “0” indicates a mean of less than 50 pg/ml IL-2 was secreted); in experiment [5], 0 (A “0” indicates a mean of less than 50 pg/ml IL-2 was secreted); in experiment [6], “+ (“+” indicates 50-250 pg/ml)”. In addition, the IL-2 secretion in [7] is on record as 0 (A “0” indicates a mean of less than 50 pg/ml IL-2 was secreted); in experiment [8] it was 0 (A “0” indicates a mean of less than 50 pg/ml IL-2 was secreted); in [9], “+ (“+” indicates 50-250 pg/ml)”; in [10], 0 (A “0” indicates a mean of less than 50 pg/ml IL-2 was secreted); in [11], 0 (A “0” indicates a mean of less than 50 pg/ml IL-2 was secreted); in experiment [12], “+ (“+” indicates 50-250 pg/ml)”. Besides, in experiment [13], the IL-2 secretion is 0 (A “0” indicates a mean of less than 50 pg/ml IL-2 was secreted).

The record behind these values is US20020071842A1, “Soluble CD1 compositions and uses thereof” (priority 2000, published 2002).
